Results taken from PMC4984800, “A first in man, dose-finding study of the mTORC1/mTORC2 inhibitor OSI-027 in patients with advanced solid malignancies” (British Journal of Cancer, 2016).

Key:
[1] = First-in-human trial: dose-limiting toxicities, adverse events, tolerability; type: in vivo
Excerpt: Three different schedules of administration were investigated during the dose-escalation phase: once daily for three consecutive days every week (Schedule 1 (S1)), once weekly (Schedule 2 (S2)) and continuous once daily (Schedule 3 (S3)). The primary objective of the study was to determine MTD and recommend a dose and schedule of OSI-027 for phase 2 trials. Secondary objectives included tolerability, safety and pharmacokinetics profile, assessment of pharmacodynamics and preliminary antitumour activity.
Dose escalation was pursued independently for each schedule following a 3+3 design. Escalation was permitted if <33% patients on a dose level experienced dose-limiting toxicities (DLT), defined as any non-haematological adverse event grade ⩾3 (NCI-CTCAE v3) related with the study drug occurring during the first cycle of treatment (21 days), with the exception of […] fatigue, nausea, vomiting and/or diarrhoea. In addition, absolute reduction ⩾15% on LVEF was also considered DLT. MTD was defined as the immediately lower dose level to the one where ⩾33% of patients experienced DLT.
Adverse events and concomitant medications were recorded throughout the trial participation.
Guidelines for dose modifications were implemented; drug administration was halted and/or dose was reduced for creatinine increase grade ⩾2 and/or if absolute values of LVEF fell ⩾15% from baseline. Permanent treatment discontinuation was mandated for LVEF drops ⩾20%.

pPRAS40 (Thr246) in PBMC = test: Pharmacodynamics in PBMC: pPRAS40 (Thr246), mTORC2 effector; type: in vivo, human
Protocol: (§1) Drug-mediated inhibition of the mTORC1 and mTORC2 signalling was evaluated through assessing modulation of phospho-4EBP1 and phospho-PRAS40 in PBMC, as well as phospho-4EBP1 and phospho-S6 in tumour biopsies. Blood aliquots were collected prior to start dosing and at prespecified time points during the first course of treatment. Fresh tumour biopsies were obtained from selected patients during the dose escalation stage and from all patients in the expansion cohorts, at baseline and during cycle 1.
(§2) Drug-mediated inhibition of mTORC1 and mTORC2 signalling by OSI-027 was assessed by measuring inhibition of their effectors p4EBP1 (Thr37/46) and pPRAS40 (Thr246), respectively, in PBMC. In addition, paired tumour biopsies at screening and during first month of therapy were used to study target modulation.

[2] = system: p4EBP1 in tumour biopsies; test: Paired tumour biopsies: p4EBP1 immunohistochemistry; type: in vivo, human
Protocol: as §1, §2
In 21 cases, pre- and postdose paired tumour biopsies were amenable for PD studies.

mTORC1 = system: mTORC1; parameters: method as in Bhagwat et al, 2011; Falcon et al, 2011; details: ref Bhagwat et al, 2011, Falcon et al; cited from earlier work
tumour cell lines = system: tumour cell lines; parameters: method as in Bhagwat et al, 2011; Falcon et al, 2011; details: including models resistant to rapalogues, ref Bhagwat et al, 2011, Falcon et al, read-out: IC50 values in a broad panel of tumour cell lines; cited from earlier work
[3] = rodents; preclinical; cited from earlier work

COc1cccc2cc(-c3nc([C@H]4CC[C@H](C(=O)O)CC4)n4ncnc(N)c34)[nH]c12 [OSI-027]
highest potentially feasible dose ([1]; S1, QD three consecutive days per week): 120 mg
MTD ([1]; S2, once weekly, 10 to 240 mg QWK tested): Dose escalation was discontinued before a formal MTD was reached
MTD ([1]; S3, continuous once daily): 30 mg QD
Maximum creatinine on treatment CTCAE grade 4, patients ([1]; human, in vivo): 0
creatinine rise (increase of at least one grade in CTCAE v3), patients ([1]; human, in vivo): 26%
cutaneous toxicities, mainly grade 1–2 macular or maculo-papular rash, patients ([1]; human, in vivo): 25%
patients who discontinued drug permanently due to drug-related adverse events ([1]; human, in vivo): 8.1%
patients with a grade ⩾3 drug-related event ([1]; human, in vivo): 17%
patients with a drop in the LVEF ([1]; human, in vivo, 3 weeks): 38%
Dose limiting toxicity ([1]; human, in vivo, 12 days): Elevated serum creatinine (G2)
Dose limiting toxicity ([1]; human, in vivo, 13 days): Fatigue (G3)
Dose limiting toxicity ([1]; human, in vivo, 14 days): Bone pain (G3)
Dose limiting toxicity ([1]; human, in vivo, 15 days): Stress-induced cardiomyopathy (G3)
DLT grade 2 decreased LVEF ([1]; human, in vivo, 21 days): 1 events
DLT grade 3 bone pain ([1]; human, in vivo, 21 days): 1 events
DLT grade 3 cardiomyopathy ([1]; human, in vivo, 21 days): 1 events
DLT grade 3 fatigue ([1]; human, in vivo, 21 days): 4 events
DLT grade 3 hyperglycaemia ([1]; human, in vivo, 21 days): 1 events
DLT grade 3 maculo-papular rash ([1]; human, in vivo, 21 days): 1 events
DLT grade ⩾2 creatinine rise ([1]; human, in vivo, 21 days): 2 events
Dose limiting toxicity ([1]; human, in vivo, 21 days): Urticaria (G3)
patients with dose-limiting toxicities (DLT) ([1]; human, in vivo, 21 days): 11 patients
Dose limiting toxicity ([1]; human, in vivo, 22 days): Decreased LVEF (G2)
patients needing a dose reduction ([1]; in vivo): over half of the patients
individuals who died during study participation ([1]; including post-treatment 30 days follow-up, none judged drug-related): eight
inhibition of pPRAS40 in PBMC (pPRAS40 (Thr246) in PBMC; 4 h after dosing, doses over 30 mg, almost universal): Over 50%
inhibition of pPRAS40 in PBMC (pPRAS40 (Thr246) in PBMC; S1, 90 mg, during the 3 days on treatment): Over 50%
target inhibition (pPRAS40) in PBMC (pPRAS40 (Thr246) in PBMC; S1, 160 mg, during the 4-days off treatment, most patients): Over 50%
average reduction in p4EBP1 IHC staining ([2]; 90 mg—S1, paired tumour biopsies): 22.3%
average reduction in p4EBP1 IHC staining ([2]; 120 mg—S1, paired tumour biopsies): 49.5%
average reduction in p4EBP1 IHC staining ([2]; 240 mg—S2, paired tumour biopsies): 67.6%
IC50 (mTORC1): 22 nM
IC50 (tumour cell lines): < 10000 nM
maximum tolerated dose (MTD) in toxicology studies [3]: 20 mg kg^−1 per day
